The values below are quoted from earlier work in patent publication US20230020217A1, “HEPES-CONTAINING MEDIUM” (AJINOMOTO CO., INC., priority 2020, published 2023).

For the series the following is noted: when exposed to light for a long time (Zigler et al. 1985).

On to `O=S(=O)(O)CCN1CCN(CCO)CC1` [HEPES, 4-(2-hydroxyethyl)-1-piperazineethanesulfonic acid], for which the toxicity result was “toxicity derived from hydrogen peroxide”.
